Read-outs that look alike come from different tables or passages of the source.
How the values were obtained:
HIV-1 in CEM cells = experiment: HIV inhibition assay of acutely infected CEM cells (tetrazolium/MTT colorimetric), antiviral efficacy; assay type: cell-based; conditions: Human immunodeficiency virus 1, CCRF-CEM, 168 h
Excerpt: (§1) Methods, 20, 309-321 (1988).
(§2) [table 42: the next 8 blocks are its lines as printed, fixed-width]

[1] = Intrinsic toxicity of test compound in uninfected CEM cells (MTT); conditions: human
Excerpt: as §1, §2

HIV protease = target: T1, HIV protease (Human immunodeficiency virus type 1 group M subtype B, UniProt P04585); experiment: biochemical; assay type: biochemical
T1 construct: HIV protease is diluted in the assay buffer to a final enzyme concentration of 12.3 nanomolar, based on a molecular weight of 10,780
Description: The enzyme method is described below. […] The positive control is MVT-101 (Miller, M. et al, Science, 246, 1149 (1989)]. The assay conditions are as follows:
20 mM sodium phosphate, pH 6.4
The above described substrate is dissolved in DMSO, then diluted 10 fold in assay buffer. Final substrate concentration in the assay is 80 μM.
The final concentration of DMSO is 14% and the final concentration of glycerol is 18%. The test compound is dissolved in DMSO and diluted in DMSO to 10× the test concentration; 10 μl of the enzyme preparation is added, the materials mixed and then the mixture is incubated at ambient temperature for 15 minutes. The enzyme reaction is initiated by the addition of 40μl of substrate. The increase in fluorescence is monitored at 4 time points (0, 8, 16 and 24 minutes) at ambient temperature. Each assay is carried out in duplicate wells.

[2] = Table 21, CEM cells, 1000 TCID50 HIV-1, 7 days, read-out: EC50
[3] = Table 21, above-described enzyme assay
[4] = Table 20, calculated IC50, enzyme 12.3 nanomolar, substrate 80 μM, pH 6.4
[5] = Table 19B, calculated IC50, enzyme 12.3 nanomolar, substrate 80 μM, pH 6.4

## CCC(C)[C@H](NC(=O)CN(C)C)C(=O)N[C@@H](Cc1ccccc1)[C@H](O)CN(CC(C)C)S(=O)(=O)c1ccc(OC)cc1 (stereo partly drawn) [Example 13]
HIV-1 in CEM cells
  EC50: < 16 nM

## COCCCN(C[C@@H](O)[C@H](Cc1ccccc1)NC(=O)OCc1ccccc1)S(=O)(=O)c1ccccc1 [Example 9]
HIV-1 in CEM cells
  EC50: 398 nM
[1]
  CC50 at 168 h: 15 nM

## CC(C)CN(C[C@@H](O)[C@H](Cc1ccccc1)NC(=O)OCc1cncnc1)S(=O)(=O)c1ccc(O)cc1 [Example 41]
HIV-1 in CEM cells
  EC50: 11 nM

## COc1ccc(S(=O)(=O)N(CC(C)C)C[C@@H](O)[C@H](Cc2ccccc2)NC(=O)c2cccc(N(C)C)c2C)cc1 [Example 36]
HIV-1 in CEM cells; [2]
  EC50: 898 nM

## COc1ccc(S(=O)(=O)N(CC(C)C)C[C@@H](O)[C@H](Cc2ccccc2)NC(=O)c2cccc(O)c2C)cc1 [Example 59]
HIV protease; [3]
  IC50: 3 nM
HIV-1 in CEM cells; [2]
  EC50: 22 nM

## COc1ccc(S(=O)(=O)N(CC(C)C)CC(O)C(Cc2ccccc2)NC(=O)c2ccncc2)cc1 (stereo not drawn) [Table 5A Entry 11]
HIV protease; [4]
  IC50: 18 nM

## COc1ccc(S(=O)(=O)N(CC(C)C)CC(O)C(Cc2ccccc2)NC(=O)c2cccnc2)cc1 (stereo not drawn) [Table 5A Entry 9]
HIV protease; [4]
  IC50: 67 nM

## COc1ccc(S(=O)(=O)N(CC(C)C)C[C@@H](O)[C@H](Cc2ccccc2)NC(=O)c2ccccc2C)cc1 [Example 29]
HIV-1 in CEM cells
  EC50: 105 nM
[1]
  CC50 at 168 h: 196000 nM

## O=C(N[C@@H](Cc1ccccc1)[C@H](O)CN(C1CCCCC1)S(=O)(=O)c1ccccc1)OCc1ccccc1 [Example 5]
HIV-1 in CEM cells
  EC50: 88 nM
[1]
  CC50 at 168 h: 11 nM

## COc1ccc(S(=O)(=O)N(CC(C)C)C[C@@H](O)[C@H](Cc2ccccc2)NC(=O)c2ccncc2)cc1 [Example 33]
HIV-1 in CEM cells
  EC50: 68 nM

## CC(C)CCN(C[C@@H](O)[C@H](Cc1ccccc1)NC(=O)[C@H](CC(N)=O)NC(=O)c1ccc2ccccc2n1)S(=O)(=O)c1ccccc1 [Example 2]
HIV-1 in CEM cells; [2]
  EC50: 5 nM
[1]
  CC50 at 168 h: 203 nM

## CC(C)CN(C[C@@H](O)[C@H](Cc1ccccc1)NC(=O)O[C@H]1CCSC1)S(=O)(=O)c1ccc(O)cc1 [Example 42]
HIV-1 in CEM cells; [2]
  EC50: < 20 nM

## COc1ccc(S(=O)(=O)N(CC(C)C)CC(O)C(Cc2ccccc2)NC(=O)c2ccccc2Cl)cc1 (stereo not drawn) [Table 5A Entry 12]
HIV protease; [4]
  IC50: 6 nM

## COc1ccc(S(=O)(=O)N(CC(C)C)C[C@@H](O)[C@H](Cc2ccccc2)NC(=O)OCc2ccc(N)nc2)cc1 [Example 38]
HIV-1 in CEM cells; [2]
  EC50: 1100 nM

## CC(C)CN(C[C@@H](O)[C@H](Cc1ccccc1)NC(=O)OCc1cccnc1)S(=O)(=O)c1ccc2c(c1)OCO2 [Example 69]
HIV-1 in CEM cells
  EC50: 68 nM

## COc1ccc(S(=O)(=O)N(CC(C)C)C[C@@H](O)[C@H](Cc2ccccc2)NC(=O)c2cccc([N+](=O)[O-])c2C)cc1 [Example 48]
HIV-1 in CEM cells; [2]
  EC50: 210 nM

## CCC(C)[C@H](NC(=O)CNC)C(=O)N[C@@H](Cc1ccccc1)[C@H](O)CN(CCC(C)C)S(=O)(=O)c1ccccc1 (stereo partly drawn) [Example 15]
HIV-1 in CEM cells
  EC50: 38 nM

## CC(C)CN(C[C@@H](O)[C@H](Cc1ccccc1)NC(=O)OCc1cccnc1)S(=O)(=O)c1ccc(Cl)cc1 [Example 18]
HIV-1 in CEM cells
  EC50: 154 nM

## COc1ccc(S(=O)(=O)N(CC(C)C)C[C@@H](O)[C@H](Cc2ccccc2)NC(=O)c2cc(N)ccc2C)cc1 [Example 54]
HIV protease; [3]
  IC50: 10 nM

## COc1ccc(S(=O)(=O)N(CC(C)C)C[C@@H](O)[C@H](Cc2ccccc2)NC(=O)C(NC(=O)CN(C)C)C(C)(C)C)cc1 (stereo partly drawn) [Table 3 Entry 10]
HIV protease; [5]
  IC50: 2.5 nM

## Cc1c(O)cccc1C(=O)N[C@@H](Cc1ccccc1)[C@H](O)CN(CC(C)C)S(=O)(=O)c1ccc2c(c1)OCO2 [Example 73]
HIV-1 in CEM cells; [2]
  EC50: 22 nM

## COc1ccc(S(=O)(=O)N(CC(C)C)CC(O)C(Cc2ccccc2)NC(=O)c2ccccc2C(C)C)cc1 (stereo not drawn) [Table 5A Entry 14]
HIV protease; [4]
  IC50: 49 nM

## COc1ccc(S(=O)(=O)N(CC(C)C)C[C@@H](O)[C@H](Cc2ccccc2)NC(=O)O[C@H]2CCOC2)cc1 [Example 44]
HIV-1 in CEM cells; [2]
  EC50: 8 nM

## COc1ccc(S(=O)(=O)N(CC(C)C)C[C@@H](O)[C@H](Cc2ccccc2)NC(=O)OCc2cccnc2)cc1 [Example 17]
HIV-1 in CEM cells
  EC50: 5 nM
[1]
  CC50 at 168 h: 59000 nM

## CC(C)CN(C[C@@H](O)[C@H](Cc1ccccc1)NC(=O)OCc1cccnc1)S(=O)(=O)c1ccc([N+](=O)[O-])cc1 [Example 19]
HIV-1 in CEM cells; [2]
  EC50: 377 nM

## COc1ccc(S(=O)(=O)N(CC(C)C)C[C@@H](O)[C@H](Cc2ccccc2)NC(=O)C2CCc3ccccc3C2)cc1 (stereo partly drawn) [Table 5A Entry 4]
HIV protease
  IC50: 10 nM

## CC(C)CN(C[C@@H](O)[C@H](Cc1ccccc1)NC(=O)OCc1cncs1)S(=O)(=O)c1ccc2c(c1)OCO2 [Example 70]
HIV-1 in CEM cells; [2]
  EC50: 30 nM

## COc1ccc(S(=O)(=O)N(CC(C)C)C[C@@H](O)[C@H](Cc2ccccc2)NC(=O)c2cccc(OC)c2)cc1 [Table 5A Entry 30]
HIV protease
  IC50: 30 nM

## COc1ccc(S(=O)(=O)N(CC(C)C)C[C@@H](O)[C@H](Cc2ccccc2)NC(=O)c2ccc(N)cc2C)cc1 [Example 51]
HIV protease; [3]
  IC50: 9 nM
HIV-1 in CEM cells; [2]
  EC50: < 20 nM

## CSCCCN(C[C@@H](O)[C@H](Cc1ccccc1)NC(=O)OCc1ccccc1)S(=O)(=O)c1ccccc1 [Example 10]
HIV-1 in CEM cells
  EC50: 700 nM
[1]
  CC50 at 168 h: 12 nM

## COc1ccc(S(=O)(=O)N(CC(C)C)C[C@@H](O)[C@H](Cc2ccccc2)NC(=O)OCc2cncs2)cc1 [Example 56]
HIV-1 in CEM cells; [2]
  EC50: 40 nM

## COc1ccc(S(=O)(=O)N(CC(C)C)C[C@@H](O)[C@H](Cc2ccccc2)NC(=O)c2ccccc2OC)cc1 [Table 5A Entry 29]
HIV protease; [4]
  IC50: 190 nM

## COc1ccc(S(=O)(=O)N(CC(C)C)CC(O)C(Cc2ccccc2)NC(=O)c2ccc(C)cc2)cc1 (stereo not drawn) [Table 5A Entry 28]
HIV protease; [4]
  IC50: 15 nM

## CC(C)CN(C[C@@H](O)[C@H](Cc1ccccc1)NC(=O)OCc1ccoc1)S(=O)(=O)c1ccc(N)cc1 [Example 60]
HIV-1 in CEM cells; [2]
  EC50: 60 nM

## CC(C)CN(C[C@@H](O)[C@H](Cc1ccccc1)NC(=O)O[C@H]1CCS(=O)(=O)C1)S(=O)(=O)c1ccc(O)cc1 [Example 43]
HIV-1 in CEM cells; [2]
  EC50: 63 nM

## Cc1ccccc1C(=O)N[C@@H](Cc1ccccc1)[C@H](O)CN(CC(C)C)S(=O)(=O)c1ccc(O)cc1 [Example 37]
HIV-1 in CEM cells; [2]
  EC50: < 20 nM

## COc1ccc(S(=O)(=O)N(CC(C)C)CC(O)C(Cc2ccccc2)NC(=O)c2ccccc2)cc1 (stereo not drawn) [Table 5A Entry 25]
HIV protease; [4]
  IC50: 14 nM

## COc1ccc(S(=O)(=O)N(CC(C)C)C[C@@H](O)[C@H](Cc2ccccc2)NC(=O)c2cccnc2)cc1 [Example 34]
HIV-1 in CEM cells
  EC50: 188 nM

## COc1ccc(S(=O)(=O)N(CC(C)C)C[C@@H](O)[C@H](Cc2ccccc2)NC(=O)c2ccc(N(C)C)cc2C)cc1 [Example 52]
HIV protease; [3]
  IC50: > 100 nM

## COc1ccc(S(=O)(=O)N(CC(C)C)C[C@@H](O)[C@H](Cc2ccccc2)NC(=O)OCc2ccc(O)nc2)cc1 [Example 39]
HIV-1 in CEM cells; [2]
  EC50: 269 nM

## CC(C)CN(C[C@@H](O)[C@H](Cc1ccccc1)NC(=O)OCc1cncs1)S(=O)(=O)c1ccc(O)cc1 [Example 57]
HIV-1 in CEM cells; [2]
  EC50: < 20 nM

## CC(C)CN(C[C@@H](O)[C@H](Cc1ccccc1)NC(=O)OCc1cccnc1)S(=O)(=O)c1ccc(O)cc1 [Example 20]
HIV-1 in CEM cells; [2]
  EC50: 13 nM

## COc1ccc(S(=O)(=O)N(CC(C)C)C[C@@H](O)[C@H](Cc2ccccc2)NC(=O)c2ccc(C)cc2C)cc1 [Table 5A Entry 6]
HIV protease
  IC50: 23 nM

## CC(C)CCN(C[C@@H](O)[C@H](Cc1ccccc1)NC(=O)C(NC(=O)CN(C)C)C(C)(C)C)S(=O)(=O)c1ccccc1 (stereo partly drawn) [Table 3 Entry 8]
HIV protease; [5]
  IC50: 3 nM

## COc1ccc(S(=O)(=O)N(CC(C)C)C[C@@H](O)[C@H](Cc2ccccc2)NC(=O)OCc2ccoc2)cc1 [Example 58]
HIV-1 in CEM cells; [2]
  EC50: 70 nM

## COc1ccc(S(=O)(=O)N(CC(C)C)C[C@@H](O)[C@H](Cc2ccccc2)NC(=O)c2cccc(N)c2C)cc1 [Example 49]
HIV protease; [3]
  IC50: 6 nM
HIV-1 in CEM cells; [2]
  EC50: < 20 nM

## CNCC(=O)NC(C(=O)N[C@@H](Cc1ccccc1)[C@H](O)CN(CCC(C)C)S(=O)(=O)c1ccccc1)C(C)(C)C (stereo partly drawn) [Table 3 Entry 6]
HIV protease; [5]
  IC50: 1.8 nM

## COc1ccc(S(=O)(=O)N(CC(C)C)C[C@@H](O)[C@H](Cc2ccccc2)NC(=O)O[C@H]2CCSC2)cc1 [Example 46]
HIV-1 in CEM cells; [2]
  EC50: < 20 nM

## CC(C)CN(C[C@@H](O)[C@H](Cc1ccccc1)NC(=O)O[C@H]1CCOC1)S(=O)(=O)c1ccc(O)cc1 [Example 45]
HIV-1 in CEM cells
  EC50: 5 nM

## CC(C)CCN(C[C@@H](O)[C@H](Cc1ccccc1)NC(=O)C(NC(=O)OCc1ccccc1)C(C)(C)C)S(C)(=O)=O (stereo partly drawn) [Table 3 Entry 1]
HIV protease; [5]
  IC50: 81 nM

## COc1ccc(S(=O)(=O)N(CC(C)C)C[C@@H](O)[C@H](Cc2ccccc2)NC(=O)OCc2cncnc2)cc1 [Example 23]
HIV-1 in CEM cells; [2]
  EC50: 8 nM
